Reference: the NIST ThermoML archive (doi:10.1016/j.jct.2013.12.028)

Experiments:
[1] = 101.33 kPa, Liquid, Vibrating tube method
[2] = refractive index (Na D-line) (dimensionless); settings: 298.15 K; 101.33 kPa; Liquid; Pulfrich refractometry

C1CCOC1 [tetrahydrofuran]
[1]
Settings | mass density [kg/m3]
278.15 K | 903.68
283.15 K | 898.309
288.15 K | 892.903
293.15 K | 887.471
298.15 K | 882.005
303.15 K | 876.513
308.15 K | 870.981
313.15 K | 865.414
318.15 K | 859.81

Settings | refractive index
[2] | 1.4048
